Drawing on patent US20230079819A1, “COMPOUNDS AND USES THEREOF” (Foghorn Therapeutics Inc., priority 2019, published 2023), this text covers IC50 for 20 compounds.

For one test, the target named is T1, BRM (Homo sapiens, UniProt P51531).
T1 construct: made in house; host or cells: High Five insect cells
Kind of test: ATPase catalytic activity of BRM, ADP-Glo in vitro biochemical assay. As to conditions: ATPase catalytic activity, 30 nM BRM, 400 μM ATP, read-out: BRM IP50. (In general: ADP-Glo first removes unused ATP, then detects ADP through luciferase.)

The next test has as its target T2, BRG-1 (Homo sapiens, UniProt P51532).
T2 construct: made in house; host or cells: High Five insect cells
Kind of test: ATPase catalytic activity of BRG-1, ADP-Glo in vitro biochemical assay. As to conditions: ATPase catalytic activity, 30 nM BRG-1, 400 μM ATP, read-out: BRG1 IP50.

T1 sequence (P51531 whole entry): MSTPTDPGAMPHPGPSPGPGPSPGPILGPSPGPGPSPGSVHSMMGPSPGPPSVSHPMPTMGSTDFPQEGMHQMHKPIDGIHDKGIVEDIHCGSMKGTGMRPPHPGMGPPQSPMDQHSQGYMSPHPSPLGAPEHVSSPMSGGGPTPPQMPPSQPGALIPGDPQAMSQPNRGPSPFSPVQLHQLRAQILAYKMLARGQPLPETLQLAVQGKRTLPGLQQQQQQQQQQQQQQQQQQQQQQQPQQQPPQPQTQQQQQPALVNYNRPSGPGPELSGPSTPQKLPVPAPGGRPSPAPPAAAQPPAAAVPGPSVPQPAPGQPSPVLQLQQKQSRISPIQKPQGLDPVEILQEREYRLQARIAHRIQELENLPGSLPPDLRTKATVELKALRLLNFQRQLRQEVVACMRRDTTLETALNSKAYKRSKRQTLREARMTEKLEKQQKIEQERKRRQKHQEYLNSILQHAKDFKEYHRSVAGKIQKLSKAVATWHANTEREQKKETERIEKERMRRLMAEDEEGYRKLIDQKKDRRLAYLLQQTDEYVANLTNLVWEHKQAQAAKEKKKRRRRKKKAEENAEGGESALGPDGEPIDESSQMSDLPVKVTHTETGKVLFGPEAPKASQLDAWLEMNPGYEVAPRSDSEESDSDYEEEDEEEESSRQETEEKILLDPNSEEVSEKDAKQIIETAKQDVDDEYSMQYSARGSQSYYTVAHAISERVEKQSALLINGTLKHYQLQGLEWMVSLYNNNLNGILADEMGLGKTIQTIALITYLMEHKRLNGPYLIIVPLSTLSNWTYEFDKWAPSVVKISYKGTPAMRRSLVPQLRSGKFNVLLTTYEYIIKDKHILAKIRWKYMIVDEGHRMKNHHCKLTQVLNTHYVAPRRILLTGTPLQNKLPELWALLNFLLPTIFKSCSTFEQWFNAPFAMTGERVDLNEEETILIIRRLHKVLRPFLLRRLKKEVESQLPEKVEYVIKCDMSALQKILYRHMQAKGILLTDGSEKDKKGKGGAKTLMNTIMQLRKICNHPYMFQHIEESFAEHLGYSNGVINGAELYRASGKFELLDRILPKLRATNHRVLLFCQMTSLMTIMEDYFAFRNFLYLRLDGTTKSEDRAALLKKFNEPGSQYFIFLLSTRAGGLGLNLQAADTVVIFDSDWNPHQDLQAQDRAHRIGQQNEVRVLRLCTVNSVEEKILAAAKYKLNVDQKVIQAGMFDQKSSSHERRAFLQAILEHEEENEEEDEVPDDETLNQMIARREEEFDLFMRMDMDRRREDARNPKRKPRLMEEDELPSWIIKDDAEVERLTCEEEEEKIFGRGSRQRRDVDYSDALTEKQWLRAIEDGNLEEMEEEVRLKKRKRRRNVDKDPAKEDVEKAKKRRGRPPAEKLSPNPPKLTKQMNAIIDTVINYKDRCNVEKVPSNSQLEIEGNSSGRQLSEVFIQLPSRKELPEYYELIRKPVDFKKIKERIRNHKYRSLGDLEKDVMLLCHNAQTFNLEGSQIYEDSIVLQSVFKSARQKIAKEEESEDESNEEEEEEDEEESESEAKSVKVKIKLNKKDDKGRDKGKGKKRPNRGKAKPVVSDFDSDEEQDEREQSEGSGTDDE
T2 sequence (P51532 whole entry): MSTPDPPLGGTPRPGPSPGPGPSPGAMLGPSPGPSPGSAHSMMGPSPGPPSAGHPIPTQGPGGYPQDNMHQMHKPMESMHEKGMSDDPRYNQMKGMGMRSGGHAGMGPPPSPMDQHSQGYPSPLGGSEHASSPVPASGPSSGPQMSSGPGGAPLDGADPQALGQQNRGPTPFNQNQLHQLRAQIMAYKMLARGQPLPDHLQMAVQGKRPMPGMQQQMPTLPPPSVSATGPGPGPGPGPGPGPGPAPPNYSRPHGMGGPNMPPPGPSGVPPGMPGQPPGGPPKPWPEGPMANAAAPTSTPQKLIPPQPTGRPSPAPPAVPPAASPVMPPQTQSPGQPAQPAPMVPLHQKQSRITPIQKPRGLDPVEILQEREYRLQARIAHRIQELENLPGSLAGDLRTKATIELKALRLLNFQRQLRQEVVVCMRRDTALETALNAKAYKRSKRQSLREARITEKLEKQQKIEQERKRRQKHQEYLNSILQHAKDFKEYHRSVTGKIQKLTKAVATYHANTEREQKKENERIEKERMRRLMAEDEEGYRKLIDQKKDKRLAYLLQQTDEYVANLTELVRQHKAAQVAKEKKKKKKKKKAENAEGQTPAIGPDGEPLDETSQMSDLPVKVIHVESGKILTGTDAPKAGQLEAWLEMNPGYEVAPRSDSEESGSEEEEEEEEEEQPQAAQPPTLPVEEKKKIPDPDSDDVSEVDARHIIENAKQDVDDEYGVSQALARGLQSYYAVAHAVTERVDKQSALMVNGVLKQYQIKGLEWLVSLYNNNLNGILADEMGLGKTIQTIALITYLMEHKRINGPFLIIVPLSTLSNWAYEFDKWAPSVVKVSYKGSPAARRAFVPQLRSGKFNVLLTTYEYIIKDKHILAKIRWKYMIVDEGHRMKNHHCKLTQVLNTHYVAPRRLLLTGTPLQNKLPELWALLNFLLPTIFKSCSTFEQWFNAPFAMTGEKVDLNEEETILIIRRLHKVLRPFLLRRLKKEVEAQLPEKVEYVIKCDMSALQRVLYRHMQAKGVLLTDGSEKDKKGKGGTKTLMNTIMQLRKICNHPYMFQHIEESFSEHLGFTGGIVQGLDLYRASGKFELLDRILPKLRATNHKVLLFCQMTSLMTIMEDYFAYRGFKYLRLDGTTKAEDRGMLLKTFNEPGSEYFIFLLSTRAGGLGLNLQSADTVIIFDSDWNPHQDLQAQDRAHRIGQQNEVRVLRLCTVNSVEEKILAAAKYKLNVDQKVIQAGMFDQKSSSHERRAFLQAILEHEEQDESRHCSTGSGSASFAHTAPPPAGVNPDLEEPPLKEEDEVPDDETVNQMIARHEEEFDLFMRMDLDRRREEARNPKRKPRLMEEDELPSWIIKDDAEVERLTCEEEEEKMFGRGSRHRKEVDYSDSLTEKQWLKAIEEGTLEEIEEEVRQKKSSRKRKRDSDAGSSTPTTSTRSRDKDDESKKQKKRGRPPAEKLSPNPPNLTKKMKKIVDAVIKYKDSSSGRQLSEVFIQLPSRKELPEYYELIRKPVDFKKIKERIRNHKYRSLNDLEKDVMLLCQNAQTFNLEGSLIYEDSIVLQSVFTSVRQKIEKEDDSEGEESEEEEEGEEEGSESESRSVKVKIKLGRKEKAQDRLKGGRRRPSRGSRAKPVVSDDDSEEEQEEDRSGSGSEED

`CC(C)(C)n1ccc(C(=O)NCC(=O)Nc2nc(-c3cccc(N4CC(N5CCS(=O)(=O)CC5)C4)n3)cs2)c1` [Compound 629]: the IC50 at BRM and on BRG-1 was above 100 nM in each case.

Consider `Cc1nnc(C2CCN(c3cccc(-c4csc(NC(=O)CNC(=O)c5ccn(C(C)(C)C)c5)n4)n3)CC2)o1` [Compound 630], for which the IC50 on BRM and on BRG-1 was above 10 nM each time.

Consider `CC(C)(C)n1ccc(C(=O)NCC(=O)Nc2nc(-c3cccc(N4CCC5(CCCCO5)C4)n3)cs2)c1` (stereo not shown) [Compound 631], for which the IC50 on BRM and at BRG-1 was above 10 nM in each case.

With `CC(C)(C)n1ccc(C(=O)NCC(=O)Nc2nc(-c3cccc(N4CCc5ccncc5C4)n3)cs2)c1` [Compound 632], the IC50 on BRM and on BRG-1 was above 10 nM each time.

`CC(C)(C)n1ccc(C(=O)NCC(=O)Nc2nc(-c3cccc(N4CCC(OC(F)F)C4)n3)cs2)c1` (stereo not shown) [Compound 633]: the IC50 on BRM and at BRG-1 was above 10 nM in each case.

For `CC(C)(C)n1ccc(C(=O)NCC(=O)Nc2nc(-c3cccc(N4CCC5(CC5)C4)n3)cs2)c1` [Compound 634], the IC50 on BRM and at BRG-1 was above 10 nM each time.

For `CC(C)(C)n1ccc(C(=O)NCC(=O)Nc2nc(-c3cccc(N4CC[C@@H](N5CCOCC5)[C@@H](F)C4)n3)cs2)c1` [Compound 635], the IC50 on BRM and on BRG-1 was above 100 nM throughout.

Take `CC(C)(C)n1ccc(C(=O)NCC(=O)Nc2nc(-c3cccc(N4CCCC(N5CCCC5)C4)n3)cs2)c1` (stereo not shown) [Compound 636]: the IC50 at BRM and on BRG-1 was above 10 nM throughout.

In the case of `Cn1cc2c(n1)CCN(c1cccc(-c3csc(NC(=O)CNC(=O)c4ccn(C(C)(C)C)c4)n3)n1)C2` [Compound 637], the IC50 at BRM and on BRG-1 was above 10 nM in each case.

`CC(C)(C)n1ccc(C(=O)NCC(=O)Nc2nc(-c3cccc(N4CCN5CCOCC5C4)n3)cs2)c1` (stereo not shown) [Compound 638]: the IC50 at BRM and on BRG-1 was above 100 nM in each case.

On to `CCC(=O)N1CCN(c2cccc(-c3csc(NC(=O)CNC(=O)c4ccn(C(C)(C)C)c4)n3)n2)CC1` [Compound 639], for which the IC50 on BRM and on BRG-1 was above 10 nM each time.

As to `CN(C)C(=O)N1CCN(c2cccc(-c3csc(NC(=O)CNC(=O)c4ccn(C(C)(C)C)c4)n3)n2)CC1` [Compound 640], the IC50 at BRM is above 10 nM; on BRG-1 it was above 100 nM.

As for `CN1C(=O)CC[C@H]2CN(c3cccc(-c4csc(NC(=O)CNC(=O)c5ccn(C(C)(C)C)c5)n4)n3)CC[C@H]21` [Compound 641], the IC50 on BRM and on BRG-1 was above 100 nM each time.

Consider `CCOC1CCN(c2cccc(-c3csc(NC(=O)CNC(=O)c4ccn(C(C)(C)C)c4)n3)n2)CC1` [Compound 642], for which the IC50 on BRM and at BRG-1 was above 100 nM throughout.

For `CN1C(=O)CC[C@@H]2CN(c3cccc(-c4csc(NC(=O)CNC(=O)c5ccn(C(C)(C)C)c5)n4)n3)CC[C@H]21` [Compound 643], the IC50 at BRM and on BRG-1 was above 10 nM each time.

Take `CC(C)(C)n1ccc(C(=O)NCC(=O)Nc2nc(-c3cccc(N4CC5(COC5)C4)n3)cs2)c1` [Compound 644]: the IC50 on BRM and on BRG-1 was above 100 nM throughout.

Turning to `CC(C)(C)n1ccc(C(=O)NCC(=O)Nc2nc(-c3cccc(N4CCCC5(CCOCC5)C4)n3)cs2)c1` [Compound 645], the IC50 on BRM and at BRG-1 was above 10 nM each time.

With `CC(C)(C)n1ccc(C(=O)NCC(=O)Nc2nc(-c3cccc(N4CC(F)(F)C4)n3)cs2)c1` [Compound 646], the IC50 on BRM and on BRG-1 was above 100 nM in each case.

As for `CC(C)(C)n1ccc(C(=O)NCC(=O)Nc2nc(-c3cccc(N4CC[C@@H](F)C4)n3)cs2)c1` [Compound 647], the IC50 at BRM and at BRG-1 was above 10 nM throughout.

`C[C@@]1(n2ccc(C(=O)NCC(=O)Nc3nc(-c4cccc(N5CCC5)c4)cs3)c2)CC1(F)F` [Compound 651]: the IC50 on BRM is above 100 nM; at BRG-1, above 1000 nM.
